The test system of this test is TNF-α secretion in THP1 cells. As to the kind of experiment: TNF-α secretion by LPS-stimulated THP-1 differentiated cells after synthetic peptide treatment (Biolegend ELISA). Conditions: THP-1 cells, synthetic peptide 100, 10 or 1 ng/ml for 24 h, then 10 ng/ml LPS 5 h; vs untreated control; concentration behind the value not stated. Type of test: cell-based, human. As to the method:
FIGS. 1 to 18: The effect of eighteen synthetic peptides of the invention on TNF-secretion in THP1 cells. All experiments were prepared in duplicate on three plates (6 wells/conditions). Significance was calculated using Students t-test (*p<0.05 compared to control, **p<0.01 compared to control, *** p<0.001 compared to control). The figures correspond with the following SEQ ID Nos: FIG. 1 is SEQ ID NO: 339, FIG. 2 is SEQ ID NO: 352, FIG. 3 is SEQ ID NO: 341, FIG. 4 is SEQ ID NO: 351, FIG. 5 is SEQ ID NO: 144, FIG. 6 is SEQ ID NO: 93, FIG. 7 is SEQ ID NO: 320, FIG. 8 is SEQ ID NO: 92, FIG. 9 is SEQ ID NO: 75, FIG. 10 is SEQ ID NO: 76, FIG. 11 is SEQ ID NO: 349, FIG. 12 is SEQ ID NO: 350, FIG. 13 is SEQ ID NO: 105, FIG. 14 is SEQ ID NO: 177, FIG. 15 is SEQ ID NO: 345, FIG. 16 is SEQ ID NO: 353, FIG. 17 is SEQ ID NO: 344, FIG. 18 is SEQ ID NO: 346.
FIGS. 26 to 28. The effect of three synthetic peptides of the invention on TNF-secretion in THP1 cells. All experiments were prepared in duplicate on three plates (6 wells/conditions). Significance was calculated using Students t-test (*p<0.05 compared to control, **p<0.01 compared to control, ***p<0.001 compared to control). The figures correspond with the following SEQ ID Nos: FIG. 26 is SEQ ID NO: 85, FIG. 27 is SEQ ID NO: 91, FIG. 28 is SEQ ID NO: 420.
TNF-α is secreted by macrophages in response to stimulation by endotoxins such as lipopolysaccharides (LPS). TNF-α is thought to be involved in systemic inflammation and dysregulation of TNF-α production is thought to be involved in many diseases. The Biolegend assay is a sandwich ELISA kit that is designed for the accurate quantitation of human TNF-α from cell culture supernatant, serum or plasma.
THP-1 monocytes were seeded in a 96 well plate at 10,000 cells per well in RPMI containing 10% fetal calf serum (FCS), 1% Pen/strep, 1% L-glutamine, 100 nM PMA and allowed to differentiated for 72 h prior to experimentation.
Following differentiation the cells were incubated with 100 ng/ml, 10 ng/ml or 1 ng/ml synthetic peptide for 24 h respectively.
Following treatment the cells were stimulated with 10 ng/ml LPS for 5 h and the quantity of TNF-α in the supernatant determined using the Biolegend assay ELISA kit.
Results were calculated as a percentage of the untreated control. An increase in optical density reading indicates greater quantity of TNF-a release into cell culture supernatant.
All experiments were prepared in duplicate on three plates (6 wells/conditions). Significance was calculated using Students t-test (*p<0.05 compared to control, **p<0.01 compared to control, ***p<0.001 compared to control).
A general note: In an ELISA, binding on a coated surface is turned into a signal by an enzyme label.
Consider 344 (GYYGEQQQQPGMTR) [compound 344], for which the “TNF-α DECREASE” value came to 20%.

Consider “92 (FFELTPEKNQQLQDLDLFVNSVDLK) [compound 92]”, for which the “TNF-α DECREASE” value is 13%.

As for 320 (RGPQQYAEWQINE) [compound 320], the “TNF-α DECREASE” value was found to be 13%.

Turning to 346 (NGVLRPGQL) [compound 346], the “TNF-α DECREASE” value came out at 18%.

With 341 (RGPQQYA) [compound 341], the “TNF-α DECREASE” value turned out to be 21%.

With 420 (RLQSQNDQRGEIIHVK) [compound 420], the “TNF-α DECREASE” value amounted to 80%.

With “85 (SKPHTIFLPQHTDADYILVVLSGK) [compound 85]”, the “TNF-α DECREASE” value is given as 80%.

For the substance 339 (QSFLLSGNQNQQ) [compound 339], the “TNF-α DECREASE” value amounted to 26%.

For the substance 351 (HGPVEMPYTLLYPSSK) [compound 351], the “TNF-α DECREASE” value is reported as 18%.

For the substance 75 (LSSGDVFVIPAGHPVAVK) [compound 75], the “TNF-α DECREASE” value turned out to be 11%.

In the case of 352 (LDALEPDNR) [compound 352], the “TNF-α DECREASE” value is 23%.

In the case of 105 (PSYEKQEDEEEKQK) [compound 105], the “TNF-α DECREASE” value is 9%.

Turning to 76 (EDDEEEEQGEEEINK) [compound 76], the “TNF-α DECREASE” value was determined as 9%.

For 144 (SIFRALPND) [compound 144], the “TNF-α DECREASE” value was 16%.

Regarding “91 (PGQLQSFLLSGNQNQQNYLSGFSK) [compound 91]”, the “TNF-α DECREASE” value worked out at 80%.

On to 349 (TVFDGVLRPGQL) [compound 349], for which the “TNF-α DECREASE” value is on record as 6%.

As for 345 (IDGYDTPVEGR) [compound 345], the “TNF-α DECREASE” value is recorded as 23%.

Regarding 93 (QLEELSK) [compound 93], the “TNF-α DECREASE” value is recorded as 14%.

Values taken from patent US11779531B2, “Anti-inflammatory peptides, and uses thereof” (NURITAS LIMITED, priority 2015, dated 2023).
